Data on one compound can be found in patent publication US20030162191A1, “Enzymes and uses relating thereto” (priority 2000, published 2003).

Each structure is given as a SMILES string.

One test has as its target T1, pH7 nSMase (Homo sapiens, UniProt Q92485).
T1 construct: For pH7 nSMase assays, membranes from Jurkat cells (human T-cell lymphoma) were used; endogenous in cells; host or cells: Jurkat (human T-cell lymphoma) membranes, Triton X-100 eluate
T1 sequence (Q92485 19-455): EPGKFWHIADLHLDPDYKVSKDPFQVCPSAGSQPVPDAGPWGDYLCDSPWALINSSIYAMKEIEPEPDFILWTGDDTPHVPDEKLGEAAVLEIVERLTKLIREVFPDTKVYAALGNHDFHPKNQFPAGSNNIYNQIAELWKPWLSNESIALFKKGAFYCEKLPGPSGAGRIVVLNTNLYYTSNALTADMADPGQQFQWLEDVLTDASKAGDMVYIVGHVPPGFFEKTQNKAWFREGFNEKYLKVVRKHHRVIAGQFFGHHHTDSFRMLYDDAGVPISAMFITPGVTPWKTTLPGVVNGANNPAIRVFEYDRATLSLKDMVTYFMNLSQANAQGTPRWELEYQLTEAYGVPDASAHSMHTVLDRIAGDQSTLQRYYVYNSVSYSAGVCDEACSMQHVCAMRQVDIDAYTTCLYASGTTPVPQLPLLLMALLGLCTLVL
As to the kind of experiment: pH7 nSMase assay in the presence of C11AG (membranes from Jurkat cells, Tris pH6.5). To be noted: pH7 nSMase versus pH8 nSMase. The test is classed as biochemical. As for the experimental part:
SMase activities were determined in the presence of 0, 1, 10, 100 or 1000 μg/ml C11AG. C11AG-acetate was used as a stock solution of 10 mg/ml in water.
For pH7 nSMase assays, membranes from Jurkat cells (human T-cell lymphoma) were used.
From each preparation 5 μg of protein were used for (1) a pH7 nSMase assay (in 50 μl 50 mM Tris pH6.5, 5 mM MgCl2, 1 mM NaF, 1 mM NaVO3, 0.1% Triton X 100, 20 nCi ^14C sphingomyelin), (2) a pH8 nSMase assay (in 50 μl 50 mM Tris pH8.5, 5 mM MgCl2, 1 mM NaF, 1 mM NaVO3, 0.1% Triton X 100, 20 nCi ^14C sphingomyelin) and (3) an acidic SMase assay (in 50 μl 50 mM NaH2PO4 pH5.0, 5 mM MgCl2, 1 mM NaF, 1 mM NaVO3, 0.1% Triton X 100, 20 nCi ^14C sphingomyelin).
After 30 minutes phosphorylcholine (PCH) was extracted by the addition of 2 volumes methanol/chloroform (2/1). PCH counts were determined in an aliquot of 10 μl after separation on TLC plates (Merck 60, F254, running solvent: 0.9% NaCl/methanol/NH4OH (50/70/5, V/V/V) in a Digital Autoradiograph. PCH counts of the uninhibited reaction were set 100% enzyme activity. Each assay was done in quadruplicate.

Test [1] concerns Human T-cell lymphoma cells (Jurkat). As to the kind of experiment: Stimulation of anti-APO-1 (anti-CD95) induced apoptosis in Jurkat cells. Format: cell-based. As to conditions: C11AG at 1 μg/ml, 24 hours, 37° C., FIG. 7. As for the experimental part: Human T-cell lymphoma cells (Jurkat) were seeded in 96-well plates at a density of 10^5 cells per ml. An antibody directed against CD95 (anti-APO-1) was added at various concentrations with and without C11AG at 1 μg/ml. After incubation at 37° C. for 24 hours, cell numbers were determined afer vital staining. By Nicoleti staining it was confirmed that dead cells had died due to apoptosis. All assays were done in triplicate.

In test [2] the test system is cells with or lacking pH8 nSMase. As to the kind of experiment: Sensitivity of cells to C11AG according to pH8 nSMase expression. Format: cell-based.

As to `CCCCCCCCCCC=NNC(=N)N` [C11AG, 1-(undecylidene-amino)guanidine], the “fold more active on pH7 nSMase than on pH8 nSMase” value at pH7 nSMase is 200-1000 fold. For the same compound, in test [1], the “induction of apoptosis by anti-APO-1” value was “stimulated induction of apoptosis”. Further, the “response to C11AG of cells which have both pH7 nSMase and pH8 nSMase” value in test [2] (cells with both pH7 nSMase and pH8 nSMase) was “show resistance”. Also, in test [2] (solid tumour cells, T cell lymphoma cells, activated or autoreactive T cells), the “response to C11AG of cells lacking pH8 nSMase” value is “are sensitive”.
